Results as given in PMC7093416, “Selective USP7 inhibition elicits cancer cell killing through a p53-dependent mechanism” (Scientific Reports, 2020).
Read-outs that look alike come from different tables or passages of the source.

Legend:
[1] = system: 60 DUBs in HEK293AD lysate; experiment: In situ DUB profiling: competitive ABPP with Bio-Ub-PA/Bio-Ub-VME and quantitative MS; type: binding, human; details: in vitro and activity-based proteomic profiling
Protocol: (§1) DUB profiling was performed using conditions similar to those in Lawson et al[63]. HEK 293AD cells were lysed using target engagement lysis buffer (50 mM Tris pH 8.0, 150 mM NaCl, 5 mM MgCl2, 0.5 mM EDTA, 0.5% NP-40, 10% glycerol, 1 mM TCEP, protease and phosphatase inhibitors), and the lysate was cleared by centrifugation. Samples were diluted to 2 mg/mL, and 1 mL lysate was incubated with the indicated concentration of XL177A for 5 hours at RT. Excess inhibitor was removed using a 30 K Amicon spin filter, then the resulting lysate was incubated with 1 μM each of Biotin-Ub-PA and Biotin-Ub-VME for 90 minutes at RT. SDS was added to a final concentration of 1.2%, and samples were heated to 80 °C for 5 minutes. After cooling to RT, 1X PBS was added to dilute the final SDS concentration to 0.2%. 100 μL streptavidin agarose slurry was added to each sample, followed by incubation at RT for 3 hours. After streptavidin enrichment, samples were washed vigorously (2×0.2% SDS, 3x PBS, 3x ddH2O). […]
(§2) To remove rapigest, recovered supernatants were acidified with 10% TFA, incubated at 37 °C for 45 minutes, and centrifuged at 14,000 rpm for 15 minutes at 4 °C. […] Eluted peptides were then analyzed by nanoflow LC-MS/MS as described[64] with a NanoAcquity UPLC system (Waters, Milford, MA) interfaced to a QExactive HF mass spectrometer (Thermofisher Scientific, San Jose, CA). […]

[2] = biological target: T1, 60 DUBs in HEK293AD lysate (Homo sapiens, UniProt Q93009); experiment: as above; type: binding; details: HEK293 crude cell extract, 5 hours pre-incubation
T1 construct: endogenous in cells; host or cells: HEK 293AD lysate
Protocol: as §1, §2

[3] = system: panel of 41 recombinant DUBs; experiment: In vitro DUB profiling (Ubiquigent, Ub-Rho), other DUBs of the panel; type: biochemical; details: 1 µM, 15-minute pre-treatment
Protocol: Compounds were screened using the Ubiquigent Drug Profiler SPT system (www.ubiquigent.com/drug-discovery-services/dubprofiler/). Each of 41 purified DUBs was incubated with compound for 15 minutes, then ubiquitin rhodamine 110 (Ub-Rho) was added and percent inhibition determined based on fluorescence relative to a DMSO control.

USP7 = USP7 (Homo sapiens, UniProt Q93009); experiment: Competitive ABPP with HA-Ub-VS in MCF7 crude cell extracts; type: binding; parameters: endogenous in cells; host or cells: MCF7; details: read-out: IC50 of inhibition of HA-Ub-VS labeling
Protocol: HA-Ub-VS experiments were performed as previously described in Lamberto et al[29]. Briefly, target engagement lysis buffer (50 mM Tris pH 8.0, 150 mM NaCl, 5 mM MgCl2, 0.5 mM EDTA, 0.5% NP-40, 10% glycerol, 1 mM TCEP, protease and phosphatase inhibitors) was added to cell pellets on ice. Lysate was cleared by centrifugation and diluted to 1.67 mg/mL. Where indicated, 30 μL lysate was then incubated with inhibitors or DMSO for the indicated timepoints. 1 μM HA-Ub-VS was then added to the lysate and incubated at RT for the indicated time points. Labeling reactions were quenched with 4x LDS sample buffer (Thermo Fisher B0007) supplemented with 10% BME, vortexed vigorously, and heated to 95 C for 5 minutes. Samples were resolved by SDS-PAGE and analyzed by Western blot with the indicated antibodies.

RPS19 = biological target: T2, RPS19 (Homo sapiens, UniProt P39019); experiment: XL177A-DTB chemoproteomic profiling with XL177A competition, RPS19; type: binding; details: RPS19 reporter ion intensity
T2 construct: endogenous in cells; host or cells: HEK 293AD lysate
Protocol: HEK 293AD cells were lysed as described above, and the lysate was cleared by centrifugation. Samples were diluted to 10 mg/mL, and 200 μL lysate (2 mg protein total) was incubated with the indicated concentrations of XL177A for 4 hours at RT, then 2 μM of WH114A for 4 additional hours. SDS was added to a final concentration of 1.2% (27.2 μL of a 10% stock), and denatured by heating to 80 °C for 5 minutes. After cooling to RT, 1125 μL 1X PBS was added to dilute the final SDS concentration to 0.2%. 50 μL streptavidin agarose slurry was added to each sample, followed by incubation at RT for 3 hours. After streptavidin enrichment, samples were washed vigorously (2×0.2% SDS, 3x PBS, 3x ddH2O). After the final wash, all supernatant was removed using a flat-bottom tip, and the resin was flash frozen and stored at −80 °C until workup for TMT labeling.
To remove rapigest, recovered supernatants were acidified with 10% TFA, incubated at 37 °C for 45 minutes, and centrifuged at 14,000 rpm for 15 minutes at 4 °C. Peptides were then desalted by C18, and dried by vacuum centrifugation. Dried peptides were reconstituted in 50 mM pH8.0 TEAB and labeled with TMT reagent at RT for 1 hour. TMT reactions were pooled and treated with hydroxylamine according to the manufacturer’s instructions. Peptide mixtures were then dried, reconstituted in 50 mM ammonium bicarbonate and desalted by SP3[53]. Eluted peptides were then analyzed by nanoflow LC-MS/MS as described[64] with a NanoAcquity UPLC system (Waters, Milford, MA) interfaced to a QExactive HF mass spectrometer (Thermofisher Scientific, San Jose, CA). TMT labeled peptides were injected onto a precolumn (4 cm POROS 10R2, Applied Biosystems, Framingham, MA), resolved on an analytical column (30 µm I.D. × 50 cm packed with 5 µm Monitor C18) and introduced to the mass spectrometer by ESI (spray voltage = 3.5 kV, flow rate ~30 nL/min). The mass spectrometer was operated in data dependent mode such that the 15 most abundant ions in each MS scan (m/z 300–2000, 120 K resolution, target = 3E6, lock mass for 445.120025 enabled) were subjected to MS/MS (m/z 100–2000, 30 K resolution, target = 1E5, max fill time = 100 ms). Dynamic exclusion was selected with a repeat count of 1 and an exclusion time of 30 seconds. MS/MS data was extracted to.mgf using mulitplierz scripts[54],[55] and searched against a forward-reverse human NCBI refseq database using Mascot version 2.6. Search parameters specified fixed carbamidomethylation of cysteine, fixed N-terminal and lysine TMT labelling, and variable oxidation (methionine). Additional multiplierz scripts were used to filter results to 1% FDR and derive protein-level aggregate reporter ion intensities using peptides mapping uniquely into the genome.

[4] = XL177A-DTB pulldown, HEK293AD lysate pre-treated 100nM XL177A
[5] = XL177A-DTB pulldown, HEK293AD lysate pre-treated 1uM XL177A
[6] = XL177A-DTB pulldown, HEK293AD lysate pre-treated 10uM XL177A
[7] = average of Run 1 and Run 2, 100nM XL177A
[8] = average of Run 1 and Run 2, 1uM XL177A
[9] = average of Run 1 and Run 2, 10uM XL177A

Sequence of USP7 (Q93009 whole entry): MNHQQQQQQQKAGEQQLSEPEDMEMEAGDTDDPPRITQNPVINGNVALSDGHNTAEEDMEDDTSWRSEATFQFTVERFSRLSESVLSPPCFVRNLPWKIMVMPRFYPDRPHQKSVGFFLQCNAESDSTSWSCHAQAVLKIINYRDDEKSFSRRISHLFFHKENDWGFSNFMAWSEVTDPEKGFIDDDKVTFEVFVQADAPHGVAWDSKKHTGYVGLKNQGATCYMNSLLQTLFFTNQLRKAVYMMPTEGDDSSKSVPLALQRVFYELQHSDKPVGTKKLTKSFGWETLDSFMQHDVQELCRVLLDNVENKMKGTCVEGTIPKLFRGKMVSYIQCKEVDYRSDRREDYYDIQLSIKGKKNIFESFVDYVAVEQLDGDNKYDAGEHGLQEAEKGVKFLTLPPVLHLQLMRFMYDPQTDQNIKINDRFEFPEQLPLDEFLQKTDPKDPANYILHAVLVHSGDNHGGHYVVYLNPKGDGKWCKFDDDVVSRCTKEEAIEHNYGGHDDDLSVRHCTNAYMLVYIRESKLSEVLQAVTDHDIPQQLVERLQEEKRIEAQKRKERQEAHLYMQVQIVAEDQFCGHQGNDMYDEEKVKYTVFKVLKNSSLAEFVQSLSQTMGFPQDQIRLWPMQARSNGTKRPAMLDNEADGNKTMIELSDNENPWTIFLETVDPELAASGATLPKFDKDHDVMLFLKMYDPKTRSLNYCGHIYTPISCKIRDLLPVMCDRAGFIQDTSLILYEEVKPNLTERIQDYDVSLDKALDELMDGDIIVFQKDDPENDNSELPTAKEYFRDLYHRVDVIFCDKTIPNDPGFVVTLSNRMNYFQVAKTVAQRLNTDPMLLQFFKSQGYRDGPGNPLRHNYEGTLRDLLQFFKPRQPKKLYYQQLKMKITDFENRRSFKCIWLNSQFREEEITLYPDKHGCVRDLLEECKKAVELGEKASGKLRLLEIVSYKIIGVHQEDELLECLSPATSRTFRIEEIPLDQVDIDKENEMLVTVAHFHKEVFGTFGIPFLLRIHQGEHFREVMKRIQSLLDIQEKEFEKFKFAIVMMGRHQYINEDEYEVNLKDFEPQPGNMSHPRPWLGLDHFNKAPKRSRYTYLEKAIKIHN
T1 sequence (Q93009 whole entry): as above

What does the source list for `CN1CCN(CCC(=O)Nc2ccc3c(=O)n(CC4(O)CCN(C(=O)[C@@H](CCCNC(=O)c5ccc6c(Cl)c7c(nc6c5)CCCC7)Cc5ccccc5)CC4)cnc3c2)CC1` [XL177A]?
selectivity for USP7 over closely related DUBs [1]: > 10 fold; USP7 labeling by DUB ABPs [2]: significantly blocked USP7 labeling; activity against any other DUBs [3]: did not exhibit significant activity; IC50 (USP7; 30 min preincubation): 85 nM; IC50 (USP7; 4 hr preincubation): 8 nM; Run 1 100nM 1 (RPS19; [4]): 201720; Run 1 100nM 2 (RPS19; [4]): 193904; Run 1 100nM 3 (RPS19; [4]): 198261; Run 2 100nM 1 (RPS19; [4]): 185482; Run 2 100nM 2 (RPS19; [4]): 186116; Run 2 100nM 3 (RPS19; [4]): 181339; Run 1 1uM 1 (RPS19; [5]): 206285; Run 1 1uM 2 (RPS19; [5]): 969196; Run 1 1uM 3 (RPS19; [5]): 327663; Run 2 1uM 1 (RPS19; [5]): 160877; Run 2 1uM 2 (RPS19; [5]): 741636; Run 2 1uM 3 (RPS19; [5]): 244076; Run 1 10uM 1 (RPS19; [6]): 152789; Run 1 10uM 2 (RPS19; [6]): 213160; Run 2 10uM 1 (RPS19; [6]): 210280; Run 2 10uM 2 (RPS19; [6]): 197443; AVE 100nM 1 (RPS19; [7]): 193601; AVE 100nM 2 (RPS19; [7]): 190010; AVE 100nM 3 (RPS19; [7]): 189800; AVE 1uM 1 (RPS19; [8]): 183581; AVE 1uM 2 (RPS19; [8]): 855416; AVE 1uM 3 (RPS19; [8]): 285870; AVE 10uM 1 (RPS19; [9]): 181534; AVE 10uM 2 (RPS19; [9]): 205302
